# Measured values from PubChem BioAssay (NCI).
#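 Abbreviation: GI50, concentration required for 50% inhibition of growth. TGI: concentration producing complete growth inhibition.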
# Legend:
# Experiment in all cases: growth of human tumour cells (NCI), 384-well format
# [1] = system: NCI-H23 lung
# [2] = system: HT29 colon
# [3] = system: MOLT-4 leukemia
# [4] = system: UACC-257 melanoma
# [5] = system: PC-3 prostate
# [6] = system: SK-MEL-28 melanoma
# [7] = system: SW-620 colon
# [8] = system: T-47D breast
# [9] = system: TK-10 renal
# [10] = system: HS 578T breast
# [11] = system: HOP-62 NSCLC
# [12] = system: NCI-H522 lung
# [13] = system: UACC-62 melanoma
compound,measurement,setting,value
COCc1c(-c2cc3cc(C)cc(OC)c3s2)c2c(N)ncnn2c1CN1CCNC(=O)C1,GI50,[1],4.13 µM
same,TGI,[1],28.9 µM
same,GI50,[2],12 µM
same,TGI,[2],> 100 µM
same,GI50,[3],2680 nM
same,TGI,[3],8.5 µM
same,GI50,[4],29.9 µM
same,TGI,[4],> 100 µM
same,GI50,[5],23.2 µM
same,TGI,[5],> 100 µM
same,GI50,[6],28.7 µM
same,TGI,[6],> 100 µM
same,GI50,[7],3.27 µM
same,TGI,[7],> 23.1 µM
same,GI50,[8],15.1 µM
same,TGI,[8],> 94.7 µM
same,GI50,[9],7.97 µM
same,TGI,[9],70.3 µM
same,GI50,[10],3.76 µM
same,TGI,[10],22.4 µM
same,GI50,[11],12.8 µM
same,TGI,[11],> 100 µM
same,GI50,[12],3.66 µM
same,TGI,[12],30.6 µM
same,GI50,[13],6.36 µM
same,TGI,[13],37 µM
